Calls of active or inactive are those of the source.

The values below come from ChEMBL document CHEMBL1201862, “PubChem BioAssay data set” (2004).

One test deals with Paired box protein Pax-8 (Homo sapiens, UniProt Q06710). Description: PAX8 transcriptional activity inhibition in RMG-I – RMG-I cells, luciferase, cherry-pick, dose response (AID 687027).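 Further: luciferase reporter driven by Pax8 target thyroperoxidase promoter measured by SteadyGlo luminescence.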 The test is classed as functional, cell-based.
Test [1] concerns Vero. Description: cells. The following applies: Chlorocebus sabaeus. The test is classed as functional.
In test [2] the test system is Vero. The experiment in a line: cells. As to conditions: Chlorocebus sabaeus. The test is classed as functional, cell-based.
For the next test, the target named is Cytochrome P450 3A4 (Homo sapiens, UniProt P08684). The following applies: Potency.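 Further: confirmatory qHTS run detecting inhibitors and substrates of CYP3A4.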
A further test addresses Prothrombin (Homo sapiens, UniProt P00734). Description: Thrombin 1536 HTS Dose Response Confirmation. [Related pubchem assays: 1046 (Thrombin 1536 HTS; hits were confirmed in this assay)]. The test is classed as functional.
The nature of test [3]: viability of uninfected HEp-2 cells – cell-based, HTS, cytotoxicity control for RSV inhibitor project, dose response (AID 2410). It is filed as functional. As to conditions: human respiratory syncytial virus.
The nature of test [4]: cells. The test is classed as functional, cell-based.
Test [5] can be described thus: cells. It is filed as functional, cell-based. This is another data set of the same source.
For test [6], the target named is T1, Carboxy-terminal domain RNA polymerase II polypeptide A small phosphatase 1 (Homo sapiens, UniProt Q9GZU7).
T1 sequence (Q9GZU7 whole entry): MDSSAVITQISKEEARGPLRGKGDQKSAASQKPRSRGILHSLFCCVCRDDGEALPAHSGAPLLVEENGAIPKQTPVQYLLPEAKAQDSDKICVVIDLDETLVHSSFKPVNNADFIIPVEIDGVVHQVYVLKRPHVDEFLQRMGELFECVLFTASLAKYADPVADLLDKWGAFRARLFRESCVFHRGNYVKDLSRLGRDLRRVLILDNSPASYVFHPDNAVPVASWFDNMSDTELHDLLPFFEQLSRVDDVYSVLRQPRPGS
The experiment in a line: CTDSP1 inhibitors, concentration-response, biochemical, absorbance readout, ultra-high-throughput screen actives (AID 540297). The test is classed as functional.

Another test concerns the target Large T antigen (Simian virus 40, UniProt P03070). It is filed as functional, Betapolyomavirus macacae.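 Further: Confirmatory-stage PubChem screen for compounds that inhibit SV40 T antigen.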
Test [7] in a line: cells. It is filed as functional, cell-based. This is another data set of the same source.
A short description of test [8]: cells. It is filed as functional, cell-based. This is another data set of the same source.
Test [9] is described as follows: microbe, parasite or virus in culture. The test is classed as functional. The following applies: Mycobacterium tuberculosis.
Test [10] addresses T2, Fatty acid synthase (Homo sapiens, UniProt P49327). The experiment in a line: inhibition of human FAS-TE enzyme activity – biochemical, kinetic fluorescence intensity, dose response (AID 624326).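 Further: rate of fluorescence rise from hydrolysis of a fluorogenic O-methyl fluorescein ester substrate.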 It is filed as functional.
Test [11] deals with T2, Fatty acid synthase. Description: inhibition of human FAS-TE enzyme activity – biochemical, endpoint fluorescence intensity, uHTS hits, dose response (AID 624327).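 Further: fluorescence from hydrolysis of an O-methyl fluorescein acyl ester substrate by the enzyme.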 The test is classed as functional.
Test [12] in a line: off-target signal loss in HeLa-CEM21 co-culture – HeLa F-luc CTL cells, cherry-picked, counter-screen for HIV-1 Env fusion inhibitor project, dose response (AID 652040).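 Further: potency for signal decrease marking cytotoxic or nonspecific inhibition.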 It is filed as functional, cell-based.
Test [13] in a line: blockers of HIV-1 envelope-mediated cell-cell fusion – cherry-pick, dose response (AID 652057). It is filed as functional, cell-based.
Test [14] in a line: blockers of HIV-1 ZM109 envelope-driven cell-cell fusion – HeLa effector, CEM target cells, luciferase, cherry-pick, dose response (AID 652058).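 Further: luciferase signal from HIV-1 Env mediated cell-cell fusion of effector and target cells.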 It is filed as functional, cell-based.
The nature of test [15]: HIV-1 AD8 envelope cell-cell fusion blockers – cherry-pick, dose response (AID 652062).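 Further: luciferase signal from cell-cell fusion driven by HIV-1 clade B AD8 Env; potency is for inhibitors of fusion seen as a drop in luminescence.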 It is filed as functional, cell-based.
Test [16] deals with Heat shock protein HSP 90-alpha (Homo sapiens, UniProt P07900). It is filed as functional, organism-based.
Test [17] concerns the target T3, Microphthalmia-associated transcription factor (Homo sapiens, UniProt O75030).
T3 sequence (O75030 whole entry): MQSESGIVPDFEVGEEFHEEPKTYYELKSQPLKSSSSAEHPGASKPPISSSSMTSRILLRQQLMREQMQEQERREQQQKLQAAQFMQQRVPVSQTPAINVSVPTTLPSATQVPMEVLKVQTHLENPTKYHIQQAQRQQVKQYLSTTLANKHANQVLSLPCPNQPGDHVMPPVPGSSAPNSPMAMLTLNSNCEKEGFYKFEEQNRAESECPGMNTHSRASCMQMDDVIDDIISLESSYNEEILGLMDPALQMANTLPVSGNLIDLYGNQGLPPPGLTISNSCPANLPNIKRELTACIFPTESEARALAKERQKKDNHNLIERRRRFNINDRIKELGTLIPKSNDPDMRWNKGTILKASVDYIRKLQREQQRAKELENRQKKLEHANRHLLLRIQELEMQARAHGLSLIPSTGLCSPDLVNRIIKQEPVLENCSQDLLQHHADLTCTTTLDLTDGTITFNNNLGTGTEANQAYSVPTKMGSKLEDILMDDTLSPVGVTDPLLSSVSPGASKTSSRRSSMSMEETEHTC
Description: reducers of TRPM1 reporter luminescence, concentration series – cell-based, SK-MEL-5, cherry-picked, set 3, MITF inhibitor project, dose response (AID 493073).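 Further: SK-MEL-5 melanoma cells with luciferase driven by the MITF target TRPM1 promoter.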 It is filed as functional.

Another test has as its target Genome polyprotein (dengue virus type 2, UniProt P29990). Description: flavivirus cap methylation enzyme inhibition – biochemical, confirmation dose response, primary screen (AID 588689). It is filed as functional.
Test [18] can be described thus: Luminescence Cell-Based Dose Confirmation HTS to Identify Inhibitors of Platelet Dense Granule Release. [Related pubchem assays: 1663 (Primary HTS), 1678 (Summary of Project)]. It is filed as functional.
Test [19] addresses Luciferin 4-monooxygenase (Photinus pyralis, UniProt P08659). Description: inhibition of purified Photinus pyralis luciferase – biochemical, luminescence, dose response (AID 1891).

Chain of Large T antigen (P03070 whole entry): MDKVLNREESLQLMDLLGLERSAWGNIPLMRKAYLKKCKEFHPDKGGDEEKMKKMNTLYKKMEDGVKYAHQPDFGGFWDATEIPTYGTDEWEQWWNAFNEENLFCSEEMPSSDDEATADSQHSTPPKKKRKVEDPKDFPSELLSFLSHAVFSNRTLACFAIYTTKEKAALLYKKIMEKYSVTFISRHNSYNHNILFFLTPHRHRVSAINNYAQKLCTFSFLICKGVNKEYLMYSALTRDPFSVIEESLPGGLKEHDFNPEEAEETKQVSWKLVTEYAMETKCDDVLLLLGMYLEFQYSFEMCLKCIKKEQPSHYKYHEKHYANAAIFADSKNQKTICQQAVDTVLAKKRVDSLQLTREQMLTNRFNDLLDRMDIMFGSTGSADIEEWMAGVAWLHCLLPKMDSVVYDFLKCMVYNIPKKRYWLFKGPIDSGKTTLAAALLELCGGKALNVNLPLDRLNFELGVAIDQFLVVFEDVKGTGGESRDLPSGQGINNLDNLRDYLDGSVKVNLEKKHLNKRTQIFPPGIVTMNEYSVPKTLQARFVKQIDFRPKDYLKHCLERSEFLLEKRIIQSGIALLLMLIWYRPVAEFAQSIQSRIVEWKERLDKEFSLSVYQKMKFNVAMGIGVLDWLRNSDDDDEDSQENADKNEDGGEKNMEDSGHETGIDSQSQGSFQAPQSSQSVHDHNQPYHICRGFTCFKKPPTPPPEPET
Chain of Cytochrome P450 3A4 (P08684 whole entry): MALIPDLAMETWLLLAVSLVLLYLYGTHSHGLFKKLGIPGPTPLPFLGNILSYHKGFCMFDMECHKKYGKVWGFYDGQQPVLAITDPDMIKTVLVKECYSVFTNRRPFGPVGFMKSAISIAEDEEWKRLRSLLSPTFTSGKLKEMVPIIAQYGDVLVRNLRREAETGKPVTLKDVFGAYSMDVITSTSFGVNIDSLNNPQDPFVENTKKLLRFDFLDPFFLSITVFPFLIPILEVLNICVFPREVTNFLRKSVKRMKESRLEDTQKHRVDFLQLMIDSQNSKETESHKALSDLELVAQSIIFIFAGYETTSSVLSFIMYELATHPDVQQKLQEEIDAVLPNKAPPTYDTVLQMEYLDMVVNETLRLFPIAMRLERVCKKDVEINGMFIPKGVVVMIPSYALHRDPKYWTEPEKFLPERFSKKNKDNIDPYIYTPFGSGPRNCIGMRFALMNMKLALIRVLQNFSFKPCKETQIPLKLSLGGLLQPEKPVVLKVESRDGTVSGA
T2 sequence (P49327 whole entry): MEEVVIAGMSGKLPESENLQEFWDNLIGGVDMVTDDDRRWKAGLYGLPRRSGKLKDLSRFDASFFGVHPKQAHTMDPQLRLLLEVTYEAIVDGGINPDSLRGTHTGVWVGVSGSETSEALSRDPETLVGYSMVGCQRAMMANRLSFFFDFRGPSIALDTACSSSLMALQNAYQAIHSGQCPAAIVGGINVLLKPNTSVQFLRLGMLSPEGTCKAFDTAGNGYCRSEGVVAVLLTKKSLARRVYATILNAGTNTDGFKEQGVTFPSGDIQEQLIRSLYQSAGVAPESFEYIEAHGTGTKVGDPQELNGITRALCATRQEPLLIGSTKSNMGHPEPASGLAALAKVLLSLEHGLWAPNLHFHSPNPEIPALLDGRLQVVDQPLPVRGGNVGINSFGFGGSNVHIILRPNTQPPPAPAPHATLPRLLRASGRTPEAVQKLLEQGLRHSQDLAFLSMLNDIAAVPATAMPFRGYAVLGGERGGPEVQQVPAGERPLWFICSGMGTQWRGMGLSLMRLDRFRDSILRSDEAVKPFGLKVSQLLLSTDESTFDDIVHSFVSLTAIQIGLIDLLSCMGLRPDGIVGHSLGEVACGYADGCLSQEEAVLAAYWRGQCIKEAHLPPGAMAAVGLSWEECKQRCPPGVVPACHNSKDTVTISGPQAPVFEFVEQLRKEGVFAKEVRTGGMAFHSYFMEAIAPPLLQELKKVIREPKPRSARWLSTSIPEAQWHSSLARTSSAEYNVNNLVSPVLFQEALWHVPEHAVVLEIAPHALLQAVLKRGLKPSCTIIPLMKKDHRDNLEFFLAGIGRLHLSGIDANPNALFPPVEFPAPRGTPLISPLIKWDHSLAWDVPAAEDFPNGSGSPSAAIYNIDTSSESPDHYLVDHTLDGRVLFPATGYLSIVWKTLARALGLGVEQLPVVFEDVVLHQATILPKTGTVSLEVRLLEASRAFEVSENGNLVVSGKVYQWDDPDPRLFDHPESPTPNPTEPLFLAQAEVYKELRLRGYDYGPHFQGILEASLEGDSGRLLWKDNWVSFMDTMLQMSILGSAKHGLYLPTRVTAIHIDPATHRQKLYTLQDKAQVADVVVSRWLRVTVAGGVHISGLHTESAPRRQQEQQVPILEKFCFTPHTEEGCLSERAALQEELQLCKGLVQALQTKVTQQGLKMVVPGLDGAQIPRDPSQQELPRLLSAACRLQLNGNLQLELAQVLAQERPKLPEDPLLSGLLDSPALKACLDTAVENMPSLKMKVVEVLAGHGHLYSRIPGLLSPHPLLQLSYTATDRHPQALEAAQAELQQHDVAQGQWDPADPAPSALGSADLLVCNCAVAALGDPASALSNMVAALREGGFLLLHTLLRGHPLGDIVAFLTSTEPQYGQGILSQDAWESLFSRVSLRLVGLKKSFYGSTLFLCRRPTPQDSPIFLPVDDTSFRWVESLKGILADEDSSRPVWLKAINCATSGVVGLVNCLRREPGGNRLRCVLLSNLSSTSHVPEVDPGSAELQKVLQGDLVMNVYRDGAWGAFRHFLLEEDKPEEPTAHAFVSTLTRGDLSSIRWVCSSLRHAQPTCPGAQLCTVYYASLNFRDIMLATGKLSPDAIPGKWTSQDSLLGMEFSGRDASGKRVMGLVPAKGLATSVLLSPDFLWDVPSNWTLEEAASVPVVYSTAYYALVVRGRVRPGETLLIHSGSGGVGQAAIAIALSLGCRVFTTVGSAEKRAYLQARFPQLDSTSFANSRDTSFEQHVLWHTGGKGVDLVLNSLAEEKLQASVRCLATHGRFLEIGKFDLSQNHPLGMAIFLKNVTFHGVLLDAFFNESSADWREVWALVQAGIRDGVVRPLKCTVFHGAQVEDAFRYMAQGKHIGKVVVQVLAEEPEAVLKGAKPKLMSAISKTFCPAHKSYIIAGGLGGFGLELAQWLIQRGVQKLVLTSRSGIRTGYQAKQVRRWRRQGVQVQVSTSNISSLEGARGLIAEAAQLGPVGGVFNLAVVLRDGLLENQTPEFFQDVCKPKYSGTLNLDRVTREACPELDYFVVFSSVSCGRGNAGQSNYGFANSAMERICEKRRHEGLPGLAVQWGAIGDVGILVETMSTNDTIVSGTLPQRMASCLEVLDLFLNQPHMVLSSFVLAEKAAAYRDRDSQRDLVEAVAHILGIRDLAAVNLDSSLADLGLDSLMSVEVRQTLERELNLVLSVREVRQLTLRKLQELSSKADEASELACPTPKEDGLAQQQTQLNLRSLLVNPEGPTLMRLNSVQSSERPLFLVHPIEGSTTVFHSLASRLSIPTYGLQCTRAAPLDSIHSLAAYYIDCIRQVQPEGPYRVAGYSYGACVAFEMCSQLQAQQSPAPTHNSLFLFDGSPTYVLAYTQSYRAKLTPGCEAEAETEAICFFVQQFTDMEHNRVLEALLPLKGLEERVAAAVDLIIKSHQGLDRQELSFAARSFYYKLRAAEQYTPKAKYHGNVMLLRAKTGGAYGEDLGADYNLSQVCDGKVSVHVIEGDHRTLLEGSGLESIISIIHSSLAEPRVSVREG
Chain of Genome polyprotein (P29990 2492-3391 limits assumed): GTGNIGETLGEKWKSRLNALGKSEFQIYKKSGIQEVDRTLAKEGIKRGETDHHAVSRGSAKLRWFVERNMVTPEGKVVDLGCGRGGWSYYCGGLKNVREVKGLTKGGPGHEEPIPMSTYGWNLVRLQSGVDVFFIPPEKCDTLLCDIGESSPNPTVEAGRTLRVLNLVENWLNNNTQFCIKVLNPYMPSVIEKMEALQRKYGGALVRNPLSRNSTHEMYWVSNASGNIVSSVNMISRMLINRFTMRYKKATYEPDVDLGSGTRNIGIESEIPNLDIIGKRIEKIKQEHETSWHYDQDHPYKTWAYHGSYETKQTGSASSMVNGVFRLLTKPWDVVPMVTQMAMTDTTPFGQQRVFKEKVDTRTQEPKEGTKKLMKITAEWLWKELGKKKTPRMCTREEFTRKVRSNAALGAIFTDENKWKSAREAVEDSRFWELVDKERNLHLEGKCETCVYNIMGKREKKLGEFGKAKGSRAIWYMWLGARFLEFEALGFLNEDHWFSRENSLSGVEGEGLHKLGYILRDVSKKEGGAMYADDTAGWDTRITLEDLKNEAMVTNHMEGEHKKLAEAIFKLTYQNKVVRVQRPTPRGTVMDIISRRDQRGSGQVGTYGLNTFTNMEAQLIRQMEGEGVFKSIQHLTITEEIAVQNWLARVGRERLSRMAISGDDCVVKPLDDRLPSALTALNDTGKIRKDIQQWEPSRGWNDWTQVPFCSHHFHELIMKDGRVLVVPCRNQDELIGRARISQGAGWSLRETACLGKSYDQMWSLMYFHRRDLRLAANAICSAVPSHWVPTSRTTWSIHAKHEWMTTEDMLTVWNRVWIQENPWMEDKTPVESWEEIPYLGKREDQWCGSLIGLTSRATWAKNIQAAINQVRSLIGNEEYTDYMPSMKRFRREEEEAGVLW
Chain of Paired box protein Pax-8 (Q06710 whole entry): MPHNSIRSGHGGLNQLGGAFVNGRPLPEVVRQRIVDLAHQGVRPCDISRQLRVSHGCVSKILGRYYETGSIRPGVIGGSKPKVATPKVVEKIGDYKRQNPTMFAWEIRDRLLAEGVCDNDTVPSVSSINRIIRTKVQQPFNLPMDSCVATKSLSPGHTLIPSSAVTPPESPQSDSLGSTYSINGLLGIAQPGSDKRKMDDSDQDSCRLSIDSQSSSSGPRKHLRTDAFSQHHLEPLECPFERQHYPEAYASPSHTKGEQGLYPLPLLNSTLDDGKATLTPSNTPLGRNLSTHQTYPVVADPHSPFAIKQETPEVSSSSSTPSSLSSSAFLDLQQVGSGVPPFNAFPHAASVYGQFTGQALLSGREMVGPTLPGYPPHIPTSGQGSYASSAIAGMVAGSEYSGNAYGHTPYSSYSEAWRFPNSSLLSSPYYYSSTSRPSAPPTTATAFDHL

Turning to `C[C@]12CC[C@H](O)C[C@@H]1CC[C@@H]1[C@@H]2CC[C@]2(C)[C@@H](C3=CC(=O)OC3)CC[C@]12O`, the AC50 at Paired box protein Pax-8 was 2.09 µM (active). Also, the CC50 with Vero [1] was 1.65 µM (active). Further, in the test on Vero [2], the IC50 was < 0.05 µM (active).

`COC(=O)c1ccc(CN2[C@@H]3C[C@@H](O)CC[C@@H]3C[C@H]2C(=O)OC)cc1`: at Cytochrome P450 3A4, the AC50 was 15.8 µM (inconclusive).

Take `COc1ccc(CNC(=O)C(C)Cc2ccccc2)cc1O` (stereo not given): on Cytochrome P450 3A4, the AC50 is 6.31 µM (inconclusive).

With `Cc1ccc2nc(-c3ccc(N)cc3)sc2c1S(=O)(=O)O`, the AC50 at Cytochrome P450 3A4 was 31.6 µM (inconclusive).

`Cc1ccccc1NC(=O)CCl`: at Prothrombin, the IC50 is > 50 µM (not active).

Take `N#C/C(=C/c1ccc(N2CCCCC2)o1)C(=O)NCCc1c[nH]c2ccccc12`: the CC50 in test [3] was 49.6 µM (active); in the test on Vero [1] it was > 25 µM (active).

As to `O=C(NCCc1ccccc1)C1CCN(C(=O)c2ccc([N+](=O)[O-])cc2)CC1`, in “cells [4]”, the EC50 was > 29.9 µM (inactive). The IC50 in “cells [5]” is > 29.9 µM (inactive).

As to `Nc1c(C(=O)OCC(=O)Nc2cccc([N+](=O)[O-])c2)[nH]c(=O)[nH]c1=O`, the IC50 in test [6] was 7.55 µM (active).

On to `O=C(NCCCN1CCOCC1)c1ccc(/C=C2\Oc3ccccc3N(Cc3ccccc3F)C2=O)cc1`, for which the IC50 with Vero [2] was 21.9 µM (active).

Turning to `O=[N+]([O-])c1ccc2c(c1N1CCCCC1)=NC1(CCCCC1)[N+]=2[O-]`, on Large T antigen, the IC50 was > 100 µM (active).

As for `COc1cc(/C=C2\C(C)=C(C#N)c3nc(N)c(C#N)c(C)c32)ccc1OCC(=O)O`, on Large T antigen, the IC50 was 58.1 µM (active).

As for `COc1ccc(NC2CCCN(C(=O)CSc3ccccc3)C2)cc1` (stereo not given), the IC50 at Large T antigen is 7.48 µM (active).

As to `Cn1c(=O)c2nc(Nc3ccccc3)[nH]c2n(C)c1=O`, the EC50 in “cells [4]” was > 29.9 µM (inactive). In addition, the IC50 in the test “cells [5]” was > 29.9 µM (inactive).

Take `CCOC(=O)Cc1csc(SCC(=O)Nc2sc3c(c2C(N)=O)CCC3)n1`: the IC50 in test [6] is 4.63 µM (active).

For `Cc1ccccc1CN1C(=O)CSc2ccc(C(=O)N3CCOCC3)cc21`, the EC50 in the test “cells [7]” and in the test “cells [8]” was > 350 µM (not active) each time.

For `CCN1CSC(=S)N(Cc2ccccc2)C1`, the figures for the CC50 (in [9]; in the test on Vero [1]) were 20.7 µM (active) and 16.1 µM (active), respectively.

Regarding `COc1ccc(CN(Cc2cc3cccc(C)c3n3nnnc23)C(=O)N2CCOCC2)cc1`, the IC50 was 26.4 µM (inactive) on Fatty acid synthase [10] and 18.8 µM (active) on Fatty acid synthase [11].

As for `CCn1cc(C(=O)NCc2ccc3c(c2)OCO3)c(=O)c2cc(S(=O)(=O)N3CCOCC3)ccc21`, the IC50 at Prothrombin is 0.158 µM (active).

For the compound `CS(=O)(=O)c1ccc2nc(NC(=O)C3CC(=O)N(c4ccc(F)cc4)C3)sc2c1` (stereo not given), the EC50 in the test “cells [7]” and in the test “cells [8]” was > 350 µM (not active) in each case.

For the compound `COc1cc(OC)cc(C(=O)N[C@H](C(=O)NCCc2c[nH]c3ccccc23)C(C)C)c1`, the AC50 in test [12] was 35.6 µM (active); in test [13], 11 µM (active); in test [14], 16.8 µM (active).

Take `CC(=O)Nc1sc2c(c1C(c1ccc(F)cc1)N1CCOCC1)CCCC2` (stereo not given): the AC50 is 32.8 µM (active) in test [15], > 70 µM (inactive) in test [12], 5.3 µM (active) in test [13] and 11.6 µM (active) in [14].

Consider `CC(C)OC(=O)[C@H]1[C@H](c2ccc(Cl)cc2)[C@@](C#N)(C(N)=O)[C@@H]2C=CC(C(N)=O)=CN21`, for which the IC50 on Fatty acid synthase [10] was 7.56 µM (active); at Fatty acid synthase [11] it was 10.9 µM (active).

Turning to `Oc1ccc(-c2nc3ccc4ccccc4c3c3c2CCC3)cc1O`, the AC50 in [16] is 6.97 µM (active).

For `O=C1CC(C(=O)N(CC2CCCO2)C(C(=O)NC2CCCCC2)c2ccncc2)CS1` (stereo not given), the AC50 in [15] is 37.8 µM (active); in test [12], 30.2 µM (active); in test [13] it was 7.23 µM (active); in test [14] it was 6.85 µM (active).

Take `CCN(CC)S(=O)(=O)c1ccc(N2CCCC2)c(NC(=O)c2ccc([N+](=O)[O-])o2)c1`: the AC50 in test [17] was 3.18 µM (active). Besides, the CC50 in the test with Vero [1] is 17.8 µM (active). Further, the IC50 in the test on Vero [2] is > 25 µM (active).

Take `O=C(C[C@H]1C[C@H](C(=O)N2CCOCC2)[C@@]2(CCC3CCCC3)c3[nH]c4cc(-c5ccco5)ccc4c3CCN2C1=O)NCCN1CCOCC1`: the IC50 was 3.76 µM (active) on Fatty acid synthase [10] and 6.62 µM (active) on Fatty acid synthase [11].

In the case of `COc1ccc(OC)c(NC(=O)CSc2ncnc3sc(C)cc23)c1`, the IC50 in test [6] was 5.46 µM (active).

Consider `CC(CNC(=O)C1CCCCC1C(=O)O)c1ccccc1` (stereo not given), for which the EC50 in the test “cells [4]” is > 29.9 µM (inactive). Further, the IC50 in the test “cells [5]” is > 29.9 µM (inactive).

Turning to `CCCCCCCCCCCCCC(=O)NO`, the AC50 in [16] was 2.71 µM (active).

On to `COc1cccc(/C=N/NC(=O)CSc2ccccc2C)c1O`, for which the EC50 in “cells [7]” was 30.4 µM (active); in “cells [8]”, 52.4 µM (active).

For the compound `CCc1nc2c(OCc3ccc(Cl)cc3)cccn2c1N(C=O)Cc1ccc(OC)cc1`, the IC50 on Fatty acid synthase [10] was 9.84 µM (active); on Fatty acid synthase [11], 8.01 µM (active).

`CCCCCCN(C(=O)CCCCCN1C(=O)NC(c2ccc(-c3ccccc3)cc2)C(C(=O)OCc2ccccc2)=C1C)C(C(=O)NCCCC)c1ccccc1` (stereo not given): the concentration at half-maximal activity (AC50) on Cytochrome P450 3A4 was 2 µM (inconclusive).

For `CC(=O)c1ccc(N2/C(=N/C(=O)COc3ccccc3)SC3CS(=O)(=O)CC32)cc1` (stereo not given), the EC50 in “cells [7]” and in “cells [8]” was > 350 µM (not active) throughout.

As to `O=C(N/N=C(\c1ccccc1)c1cccnc1)c1cc(O)ccc1O`, the IC50 at Large T antigen is 6.14 µM (active).

With `N#Cc1c(N)sc(=S)c2c1CCCCC2`, the values for the IC50 at Large T antigen and on Genome polyprotein were 46.4 µM (active) and > 100 µM (active), respectively.

Turning to `Oc1ccc(-c2nc3ccccc3s2)cc1`, at Prothrombin, the IC50 is on record as > 50 µM (not active). The results for the EC50 in [18] and in test [19] were 47.5 µM (active) and 1.26 µM (active), respectively.

On to `Nc1ccc(-c2ccc(N)c(O)c2)cc1O`, for which the AC50 on Cytochrome P450 3A4 was 31.6 µM (inconclusive).
